Source: ChEMBL document CHEMBL5543097, “Synthesis and structure-activity relationships of novel 14-membered 2-fluoro ketolides with structural modification at the C11 position” (Eur J Med Chem, 2024)
Values after ≈ are worked out from the molar mass of the structure shown. Active and inactive are the calls of the source. The calls are words filed in the database; no cut-off is given here.

What was measured:
Streptococcus pneumoniae [1] = assay: Antibacterial activity against erythromycin-resistant Streptococcus pneumoniae SPN19-8 assessed as inhibition of visible bacterial growth incubated for 18 hrs by broth microdilution method; assay type: functional
Moraxella catarrhalis [2] = assay: Antibacterial activity against Moraxella catarrhalis BCA 19-31 assessed as inhibition of bacterial growth incubated for 24 hrs by CLSI based broth microdilution method; assay type: functional; details: BCA 19-31, 24 h
Streptococcus pneumoniae [3] = assay: Antibacterial activity against erythromycin-resistant Streptococcus pneumoniae SPN19-14 assessed as inhibition of visible bacterial growth incubated for 18 hrs by broth microdilution method; assay type: functional
[4] = test system: Staphylococcus epidermidis; assay: Antibacterial activity against erythromycin-resistant Staphylococcus epidermidis 19-8 assessed as inhibition of visible bacterial growth incubated for 18 hrs by broth microdilution method; assay type: functional
[5] = test system: Staphylococcus epidermidis; assay: Antibacterial activity against erythromycin-resistant Staphylococcus epidermidis 19-6 assessed as inhibition of visible bacterial growth incubated for 18 hrs by broth microdilution method; assay type: functional
Streptococcus agalactiae [6] = assay: Antibacterial activity against erythromycin-resistant Streptococcus agalactiae 19-9 assessed as inhibition of visible bacterial growth incubated for 18 hrs by broth microdilution method; assay type: functional
[7] = test system: Staphylococcus epidermidis; assay: Antibacterial activity against erythromycin-resistant Staphylococcus epidermidis 19-11 assessed as inhibition of visible bacterial growth incubated for 18 hrs by broth microdilution method; assay type: functional
[8] = test system: Staphylococcus epidermidis; assay: Antibacterial activity against erythromycin-resistant Staphylococcus epidermidis 19-9 assessed as inhibition of visible bacterial growth incubated for 18 hrs by broth microdilution method; assay type: functional
Streptococcus agalactiae [9] = assay: Antibacterial activity against erythromycin-resistant Streptococcus agalactiae 19-8 assessed as inhibition of visible bacterial growth incubated for 18 hrs by broth microdilution method; assay type: functional
Streptococcus pneumoniae [10] = assay: Antibacterial activity against erythromycin-resistant Streptococcus pneumoniae SPN19-13 assessed as inhibition of visible bacterial growth incubated for 18 hrs by broth microdilution method; assay type: functional
[11] = test system: Staphylococcus epidermidis; assay: Antibacterial activity against erythromycin-resistant Staphylococcus epidermidis 19-4 assessed as inhibition of visible bacterial growth incubated for 18 hrs by broth microdilution method; assay type: functional
Enterococcus faecalis = assay: Antibacterial activity against Enterococcus faecalis ATCC 51575 assessed as inhibition of visible bacterial growth; assay type: functional, organism-based
[12] = Cytotoxicity against mouse AML12 cells assessed as reduction in cell viability incubated for 48 hrs by MTT assay; assay type: toxicity, cell-based
Moraxella catarrhalis [13] = assay: Antibacterial activity against Moraxella catarrhalis BCA 19-5 assessed as inhibition of bacterial growth incubated for 24 hrs by CLSI based broth microdilution method; assay type: functional; details: Moraxella catarrhalis, BCA 19-5, 24 h, read-out: MIC
Enterococcus faecium = assay: Antibacterial activity against vancomycin-resistant Enterococcus faecium assessed as inhibition of visible bacterial growth; assay type: functional
Haemophilus influenzae [14] = assay: Antibacterial activity against Haemophilus influenzae HIN 19-18 assessed as inhibition of bacterial growth incubated for 20 to 24 hrs by CLSI based broth microdilution method; assay type: functional; details: HIN 19-18, time 20-24 hrs
[15] = test system: Staphylococcus epidermidis; assay: Antibacterial activity against erythromycin-resistant Staphylococcus epidermidis 19-5 assessed as inhibition of visible bacterial growth incubated for 18 hrs by broth microdilution method; assay type: functional
Moraxella catarrhalis [16] = assay: Antibacterial activity against Moraxella catarrhalis BCA 19-6 assessed as inhibition of bacterial growth incubated for 24 hrs by CLSI based broth microdilution method; assay type: functional; details: Moraxella catarrhalis, BCA 19-6, 24 h, read-out: MIC
Streptococcus pyogenes = assay: Antibacterial activity against erythromycin-resistant Streptococcus pyogenes ATCC 19615 assessed as inhibition of visible bacterial growth incubated for 18 hrs by broth microdilution method; assay type: functional
Streptococcus pneumoniae [17] = assay: Potency index, ratio of telithromycin MIC to test compound MIC for antibacterial activity against Streptococcus pneumoniae SPN19-8 assessed as inhibition of visible bacterial growth incubated for 18 hrs by broth microdilution method; assay type: functional
[18] = test system: Staphylococcus epidermidis; assay: Potency index, ratio of telithromycin MIC to test compound MIC for antibacterial activity against erythromycin-resistant Staphylococcus epidermidis 19-5 assessed as inhibition of visible bacterial growth incubated for 18 hrs by broth microdilution method; assay type: functional
Staphylococcus aureus = assay: Antibacterial activity against Staphylococcus aureus ATCC 700699 assessed as inhibition of visible bacterial growth; assay type: functional
[19] = test system: Staphylococcus epidermidis; assay: Potency index, ratio of telithromycin MIC to test compound MIC for antibacterial activity against erythromycin-resistant Staphylococcus epidermidis 19-8 assessed as inhibition of visible bacterial growth incubated for 18 hrs by broth microdilution method; assay type: functional
Streptococcus pneumoniae [20] = assay: Potency index, ratio of telithromycin MIC to test compound MIC for antibacterial activity against Streptococcus pneumoniae SPN19-13 assessed as inhibition of visible bacterial growth incubated for 18 hrs by broth microdilution method; assay type: functional
[21] = test system: Staphylococcus epidermidis; assay: Potency index, ratio of telithromycin MIC to test compound MIC for antibacterial activity against erythromycin-resistant Staphylococcus epidermidis 19-11 assessed as inhibition of visible bacterial growth incubated for 18 hrs by broth microdilution method; assay type: functional
[22] = test system: Staphylococcus epidermidis; assay: Potency index, ratio of telithromycin MIC to test compound MIC for antibacterial activity against erythromycin-resistant Staphylococcus epidermidis 19-6 assessed as inhibition of visible bacterial growth incubated for 18 hrs by broth microdilution method; assay type: functional
Streptococcus pneumoniae [23] = assay: Potency index, ratio of telithromycin MIC to test compound MIC for antibacterial activity against Streptococcus pneumoniae SPN19-14 assessed as inhibition of visible bacterial growth incubated for 18 hrs by broth microdilution method; assay type: functional
[24] = test system: Staphylococcus epidermidis; assay: Potency index, ratio of telithromycin MIC to test compound MIC for antibacterial activity against erythromycin-resistant Staphylococcus epidermidis 19-9 assessed as inhibition of visible bacterial growth incubated for 18 hrs by broth microdilution method; assay type: functional
Haemophilus influenzae [25] = assay: Antibacterial activity against Haemophilus influenzae HIN 19-15 assessed as inhibition of bacterial growth incubated for 20 to 24 hrs by CLSI based broth microdilution method; assay type: functional; details: time 20-24 hrs
[26] = test system: Staphylococcus epidermidis; assay: Potency index, ratio of telithromycin MIC to test compound MIC for antibacterial activity against erythromycin-resistant Staphylococcus epidermidis 19-4 assessed as inhibition of visible bacterial growth incubated for 18 hrs by broth microdilution method; assay type: functional

Row | SMILES | MIC (Streptococcus pneumoniae [1]) [µg/mL] | MIC (Moraxella catarrhalis [2]) [µg/mL] | MIC (Streptococcus pneumoniae [3]) [µg/mL] | MIC [4] [µg/mL] | MIC [5] [µg/mL] | MIC (Streptococcus agalactiae [6]) [µg/mL] | MIC [7] [µg/mL] | MIC [8] [µg/mL] | MIC (Streptococcus agalactiae [9]) [µg/mL] | MIC (Streptococcus pneumoniae [10]) [µg/mL] | MIC [11] [µg/mL] | CC50 at 48 h [12] [µM] | MIC (Moraxella catarrhalis [13]) [µg/mL] | MIC (Enterococcus faecium) [µg/mL] | MIC (Haemophilus influenzae [14]) [µg/mL] | MIC [15] [µg/mL] | MIC (Moraxella catarrhalis [16]) [µg/mL] | MIC (Streptococcus pyogenes) [µg/mL] | also measured
1 | CC[C@H]1OC(=O)[C@@](C)(F)C(=O)[C@H](C)[C@@H](O[C@@H]2O[C@H](C)C[C@H](N(C)C)[C@H]2O)[C@](C)(OC)C[C@@H](C)C(=O)[C@H](C)[C@H]2N(CCCOC(=O)Nc3ccc(C(C)C)cc3)C(=O)O[C@]12C | 2 (≈ 2.35 µM) | 1 (≈ 1.18 µM) | 1 (≈ 1.18 µM) | < 0.03 | 0.25 (≈ 0.294 µM) | 4 (≈ 4.71 µM) | 0.25 (≈ 0.294 µM) | 1 (≈ 1.18 µM) | < 0.03 | 1 (≈ 1.18 µM) | 0.125 (≈ 0.147 µM) | 25.5 | 0.5 (≈ 0.588 µM) | 16 (≈ 18.8 µM) | 16 (≈ 18.8 µM) | < 0.03 | 0.25 (≈ 0.294 µM) | < 0.03 | Activity (Enterococcus faecalis): Active
2 | CC[C@H]1OC(=O)[C@@](C)(F)C(=O)[C@H](C)[C@@H](O[C@@H]2O[C@H](C)C[C@H](N(C)C)[C@H]2O)[C@](C)(OC)C[C@@H](C)C(=O)[C@H](C)[C@H]2N(CCCOC(=O)Nc3ccc4ccccc4c3)C(=O)O[C@]12C | 0.25 (≈ 0.291 µM) | < 0.03 | < 0.03 | < 0.03 | < 0.03 | 0.5 (≈ 0.583 µM) | < 0.03 | 0.125 (≈ 0.146 µM) | < 0.03 | < 0.03 | < 0.03 | 18.5 | < 0.03 | 16 (≈ 18.6 µM) | 2 (≈ 2.33 µM) | < 0.03 | < 0.03 | < 0.03 | Ratio (Streptococcus pneumoniae [17]): <4; Ratio [18]: 4; MIC (Staphylococcus aureus): 16 µg/mL (≈ 18.6 µM); Ratio [19]: 4; Ratio (Streptococcus pneumoniae [20]): <4; Ratio [21]: 4; Ratio [22]: 4; Ratio (Streptococcus pneumoniae [23]): <4; Ratio [24]: 4; MIC (Haemophilus influenzae [25]): 8 µg/mL (≈ 9.32 µM); Ratio [26]: 4
